Series [1] is described as follows: pH of 1% (w/v) aqueous solution of the salt. It counts as physicochemical. The conditions noted are these: 1% (w/v) in water. The method, then: The sodium and potassium salts of the ursodeoxycholic acid, whose 1% (w/v) aqueous solutions show pH values respectively equal to 7.80 and 7.90, are prepared in a similar manner.
20 Ml of a 0.5 M aqueous solution (10 mmoles) of 1-(2-hydroxyethyl)pyrrolidine are added under stirring to a suspension containing 3.92 g (10 mmoles) of ursodeoxycholic acid in 50 ml of water prolonging the stirring until complete solubilization. The obtained solution is then freeze-dried obtaining with quantitative yield a white powder corresponding to the salt in object.
The N-methyl-D-glucamine and L-arginine salts of the ursodeoxycholic acid, whose 1% (w/v) aqueous solutions show pH values respectively equal to 8.06 and 7.75, are prepared in a similar manner.
10 Ml of a 1 M aqueous solution (10 mmoles) of choline bicarbonate are added under stirring to a suspension containing 3.92 g (10 mmoles) of ursodeoxycholic acid in 50 ml of water prolonging the stirring until complete solubilization.

The conditions of series [2]: intestinal bacterial flora; pH lower than 8.4; cited from earlier work.

Structures are written as SMILES. Counter-ions that a name gives are not always drawn.

`C[C@H](CCC(=O)O)[C@H]1CC[C@H]2[C@@H]3[C@@H](O)C[C@@H]4C[C@H](O)CC[C@]4(C)[C@H]3CC[C@]12C` [sodium salt of the ursodeoxycholic acid]: in series [1], the “pH value of a 1% (w/v) aqueous solution” value is reported as 7.80.

Take `C[C@H](CCC(=O)O)[C@H]1CC[C@H]2[C@@H]3[C@@H](O)C[C@@H]4C[C@H](O)CC[C@]4(C)[C@H]3CC[C@]12C` [L-arginine salt of the ursodeoxycholic acid]: the “pH value of a 1% (w/v) aqueous solution” value in series [1] is reported as 7.75.

In the case of `C[C@H](CCC(=O)O)[C@H]1CC[C@H]2[C@@H]3[C@@H](O)C[C@@H]4C[C@H](O)CC[C@]4(C)[C@H]3CC[C@]12C` [N-methyl-D-glucamine salt of the ursodeoxycholic acid], the “pH value of a 1% (w/v) aqueous solution” value in series [1] was 8.06.

For `C[C@H](CCC(=O)O)[C@H]1CC[C@H]2[C@@H]3[C@@H](O)C[C@@H]4C[C@H](O)CC[C@]4(C)[C@H]3CC[C@]12C` [potassium salt of the ursodeoxycholic acid], in series [1], the “pH value of a 1% (w/v) aqueous solution” value is recorded as 7.90.

Turning to `C[C@H](CCC(=O)O)[C@H]1CC[C@H]2[C@@H]3[C@@H](O)C[C@@H]4C[C@H](O)CC[C@]4(C)[C@H]3CC[C@]12C` [Example 3, CHOLINE SALT OF THE URSODEOXYCHOLIC ACID], the “pH value of a 1% (w/v) aqueous solution” value in series [1] was found to be 7.40.

Turning to `C[C@H](CCC(=O)O)[C@H]1CC[C@H]2[C@@H]3[C@@H](O)C[C@@H]4C[C@H](O)CC[C@]4(C)[C@H]3CC[C@]12C` [Example 2, 1-(2-HYDROXYETHYL)PYRROLIDINE SALT OF THE URSODEOXYCHOLIC ACID], the “pH value of a 1% (w/v) aqueous solution” value in series [1] was determined as 7.90.

Turning to `C[C@H](CCC(=O)O)[C@H]1CC[C@H]2[C@@H]3[C@@H](O)C[C@@H]4C[C@H](O)CC[C@]4(C)[C@H]3CC[C@]12C` [Example 1, LITHIUM SALT OF THE URSODEOXYCHOLIC ACID], in series [1], the “pH value of a 1% (w/v) aqueous solution” value was 8.13.

With `C[C@H](CCC(=O)O)[C@H]1CC[C@H]2[C@@H]3[C@@H](O)C[C@@H]4C[C@H](O)CC[C@]4(C)[C@H]3CC[C@]12C` [ursodeoxycholic acid], the “biotransformation of the unabsorbed portion” value in series [2] is on record as “undergoes a biotransformation to litocholic acid”.

The values above are taken from US5302398A, “Gastroresistant pharmaceutical formulations for oral administration containing salts of bile acids” (Alfa Wassermann S.p.A., priority 1991, dated 1994).
